Assay results taken from PMC9170845, “Development of a multi faceted platform containing a tetrazine, fluorophore and chelator: synthesis, characterization, radiolabeling, and immuno-SPECT imaging” (EJNMMI Radiopharmacy and Chemistry, 2022).

Assays:
[1] = Fluorescence characterization (excitation/emission spectra, absolute quantum yield); format: physicochemical; settings: in DMSO (stated for 13); for fluorescence quantum yield (Φfl): absolute PLQY, integrating sphere
Experimental: Following the synthesis of the final scaffold, the excitation and emission spectrum, and quantum yield were measured for the uncomplexed scaffold DO3A-BODIPY-Tz (13) in DMSO (Fig. 1), where an excitation λmax = 524 nm, emission λmax = 537 nm and a fluorescence quantum yield (Φfl) of 0.38 was observed. There are reports of tetrazine residues deactivating the fluorescence properties of fluorophores when they belong to the same molecular entity. However, once the tetrazine is conjugated, these properties are reinstated (Oliveira et al. [2017]; Wu and Devaraj [2018]). To ensure this, 13 was conjugated to TCO-NHS 16 in DMSO (Scheme 2). A distinct colour change from red to orange was observed which clearly indicated tetrazine consumption. The fluorescence properties of 17 (see Additional file1: Fig. S36) were then measured and compared to 13 and 4,4′-dicyano-BODIPY (7) (see Additional file1: Fig. S35; λmax excitation = 527 nm, λmax emission = 541 nm, Φfl = 0.87).
Luminescence experiments were conducted on an Edinburgh Instruments FS5 spectrometer using the SC-05 cassette. All spectra were corrected for instrument response. Excitation and emission monochromator bandwidths for 7 and 17 were set to 1 nm, and 1.5 nm for 13. The emission spectrum for 13 was collected with the aid of a Knight Optical 395 nm long-pass filter to reduce the effects of scattering. Solution-based absolute photoluminescent quantum yields (PLQY) were obtained for 7, 13, and 17 via the SC-30 Integrating Sphere cassette with excitation wavelengths of 380, 490, and 378 nm respectively.

[2] = Stability of cyano BODIPY core in acidic conditions (TFA in CDCl3, 1H NMR); format: physicochemical; settings: treated with TFA in CDCl3, monitored via 1H NMR, 11 days
Source text: Initially our scaffold design comprised of the conventional 4,4′-difluoro-BODIPY fluorophore (Additional file1: Scheme S1). Despite numerous attempts and alternative strategies for completing the synthesis of the platform using the F-BODIPY fluorophore, the route was unsuccessful resulting in either BF2 core removal or complete decomposition (see Additional File), despite there being reports in the literature of similar transformations being successful in the presence of F-BODIPY dyes (Alnajjar et al. [2018]; Tsuji et al. [2018]; Sui et al. [2016]; Compton et al. [2019]; Ieda et al. [2014]). […] The increased stability is believed to be a result of enhanced aromaticity, decreased charge density on the boron, and the formation of a stable 4,4′-dicyano-BODIPY-TFA complex. To the best of our knowledge there has only been one example of an investigation incorporating 4,4′-dicyano-BODIPYs into a chemical synthesis with protecting groups (Uriel et al. [2020]). To reassure the stability of the cyano BODIPY core in acidic conditions, 7 was treated with TFA in CDCl3 and monitored via ^1H NMR (see Additional file1: Fig. S11) (Wang et al. [2018]). […] An alternative route was initially investigated, where the Cbz on 9 underwent hydrogenolysis followed by insertion of the chelator, deprotection, then insertion of the tetrazine. […]

Row | emission λmax [1] | excitation λmax [1] | fluorescence quantum yield (Φfl) [1] | SMILES | Stability in acidic conditions [2]
1 | 537 nm | 525 nm | 0.79 | CCC1=C(C)C2=C(c3ccc(C(=O)NC(CCCCNC(=O)Cc4ccc(C5=NNC=C6CCC(OC(=O)ON7C(=O)CCC7=O)CCCC65)cc4)C(=O)NC(CCCCNC(=O)CN4CCN(CC(=O)O)CCN(CC(=O)O)CCN(CC(=O)O)CC4)C(=O)O)cc3)c3c(C)c(CC)c(C)n3[B-](C#N)(C#N)[N+]2=C1C (stereo not shown) [compound 17] | 
2 | 541 nm | 527 nm | 0.87 | CCC1=C(C)C2=C(c3ccc(C(=O)ON4C(=O)CCC4=O)cc3)c3c(C)c(CC)c(C)n3[B-](C#N)(C#N)[N+]2=C1C [compound 7, 4,4-dicyano-8-(4-(succinimidocarboxy)phenyl)-2,6-diethyl-1,3,5,7-tetramethyl-4-bora-3a,4a-diaza-s-indacene] | no indication of instability even after 11 days
3 | 537 nm | 524 nm | 0.38 | CCC1=C(C)C2=C(c3ccc(C(=O)NC(CCCCNC(=O)Cc4ccc(-c5nncnn5)cc4)C(=O)NC(CCCCNC(=O)CN4CCN(CC(=O)O)CCN(CC(=O)O)CCN(CC(=O)O)CC4)C(=O)O)cc3)c3c(C)c(CC)c(C)n3[B-](C#N)(C#N)[N+]2=C1C [compound 13, 2,2′,2″-(10-(2-(((S)-5-((S)-6-(2-(4-(1,2,4,5-tetrazin-3-yl)phenyl)acetamido)-2-(4-(4,4-dicyano-2,6-diethyl-1,3,5,7-tetramethyl-4-bora-3a,4a-diaza-s-indacen-8-yl)benzamido)hexanamido)-5-carboxypentyl)amino)-2-oxoethyl)-1,4,7,10-tetraazacyclododecane-1,4,7-triyl)triacetic acid] | 
